The source of these data is US20250049791A1, “Synthesis of MEK7 Inhibitors and methods of Use Thereof” (Northwestern University, priority 2023, published 2025).

Like-named read-outs stand apart in the source and are kept apart here.

The target of this experiment is T1, recombinant active full-length human MEK7 (Homo sapiens, UniProt O14733).
T1 construct: recombinant active full-length human MEK7 (Carna Biosciences); purchased Carna Biosciences
T1 sequence (O14733 1-419): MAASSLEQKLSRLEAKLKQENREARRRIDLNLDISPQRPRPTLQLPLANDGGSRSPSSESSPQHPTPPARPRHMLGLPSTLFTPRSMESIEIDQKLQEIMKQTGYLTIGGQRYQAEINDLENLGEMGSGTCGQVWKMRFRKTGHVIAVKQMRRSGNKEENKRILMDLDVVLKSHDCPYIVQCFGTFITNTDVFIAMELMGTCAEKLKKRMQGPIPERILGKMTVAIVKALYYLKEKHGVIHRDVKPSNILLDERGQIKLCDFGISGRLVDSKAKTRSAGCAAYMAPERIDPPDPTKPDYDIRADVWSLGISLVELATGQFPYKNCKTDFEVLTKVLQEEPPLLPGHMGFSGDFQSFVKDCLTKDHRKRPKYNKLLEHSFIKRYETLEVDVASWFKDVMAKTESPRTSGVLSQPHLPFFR
The experiment is described as follows: ADP-Glo kinase activity assay, MEK7 with JNK1 substrate. It counts as biochemical. As to conditions: for IC50: 30 min preincubation; for in vitro activity against MAP2K7, in words: ADP-Glo assay, comparison within the series. How it is done: Procedure for a 5 μL Kinase reaction using the ADP-Glo Kinase Assay Kit from Promega. Staurosporine was used as the positive control, and DMSO (vehicle) was employed as the negative control. Activity of recombinant active full-length human MEK7 (Carna Biosciences) was measured with recombinant full-length human substrate JNK1 (MAPK8). Using a Mantis, a mixture of MEK7 and JNK1 was dispensed into a 384-well low volume white Proxiplate. For each well, 4 ng of MEK7 and 600 ng of JNK1 in kinase buffer (CST) were used, accounting for 1 μL of this mixture per well. Inhibitor was prepared in a DMSO solution (40 mM). A dose-response dilution was performed in a 384-well Echo transfer plate. Using an Echo Access, 10 nL of each solution was dispensed into the same 384-well low volume white Proxiplate as above. This mixture was allowed to incubate for 30 minutes at room temperature. Using a Mantis, 1 uL of an 8 μM ATP solution was added to each well, and the plate was allowed to incubate for another 1 hour at room temperature. Using the Mantis again, 4 μL of ADP Glo Reagent was dispensed into each well, and the plate was allowed to incubate for 45 min at room temperature. Finally, 9 μL of Kinase Detection Reagent was added manually to each well, and the plate was allowed to incubate for 45 minutes at room temperature. Luminescence was read on a Synergy Neo2 Plate Reader with filter cubes 3 and 114. Integration time was set to 0.20 seconds, gain set to 160, and read height set at 6 mm. All experiments were performed in triplicate on the plate, and at least in one separate technical duplicate was performed.
MEK4 selectivity was performed in the same manner with activated MEK4 (Carna Biosciences). Here, p-38α was employed as the kinase substrate in lieu of JNK1 due to the availability of reagents. […] To probe the ATP-competitive nature of 25, this compound was subjected to a similar assay forgoing the 30 minute incubation time described above (STAR Protocols 2021, 2, 100717). The results are tabulated below in compound characterization. Potency determined by duplicate of triplicates corresponded to a IC50 value, which is in line with the ratio difference observed among other covalent inhibitors (for examples, see Cell Chem. Biol. 2020, 27, 1285).
For orientation: In ADP-Glo the light output rises with the ADP produced.

Setting [1] is: overall value of two experiments, read-out: MEK7 IC50.
Setting [2] is: MEK7 IC50, first experiment (IC50±SEM, n=3), first value in brackets.
Setting [3] is: MEK7 IC50, second experiment (IC50±SEM, n=3), second value in brackets.

Regarding `COc1ccc(CCNc2cc(Oc3cccc(NC(=O)CCl)c3)ncn2)cc1OC` [Compound 22, 2-chloro-N-(3-((6-((3,4-dimethoxyphenethyl)amino)pyrimidin-4-yl)oxy)phenyl)acetamide], the IC50 turned out to be 1700 nM under setting [1], 1900 ± 550 nM under setting [2] and 1400 ± 970 nM under setting [3].
Regarding `O=C(CCl)Nc1cccc(Oc2cc(NCCc3ccc4c(c3)OCO4)ncn2)c1` [Compound 23, N-(3-((6-((2-(benzo[d][1,3]dioxol-5-yl)ethyl)amino)pyrimidin-4-yl)oxy)phenyl)-2-chloroacetamide], the IC50 under setting [1] was found to be 1100 nM, the IC50 under setting [2] was 1400 ± 810 nM and the IC50 under setting [3] was found to be 830 ± 680 nM.
The matching figures for `Cc1ccc(CNc2cc(Oc3cccc(NC(=O)CCl)c3)ncn2)cc1` [Compound 36, 2-chloro-N-(3-((6-((4-methylbenzyl)amino)pyrimidin-4-yl)oxy)phenyl)acetamide]: 360 nM, 420 ± 320 nM and 300 ± 150 nM.
`O=C(CCl)Nc1cccc(Oc2cc(NCc3ccccc3C(F)(F)F)ncn2)c1` [Compound 30, 2-chloro-N-(3-((6-((2-(trifluoromethyl)benzyl)amino)pyrimidin-4-yl)oxy)phenyl)acetamide]: the “in vitro activity against MAP2K7, in words” value (“in vitro activity” for short) was “towards the micromolar range”. Moreover, the concentration for half-maximal inhibition (IC50) under setting [1] amounted to 1200 nM. Further, under setting [2], the IC50 is 1100 ± 480 nM. For the same compound, the concentration for half-maximal inhibition (IC50) under setting [3] worked out at 1300 ± 550 nM.
In the case of `COc1ccc(CCNc2cc(Oc3cccc(NC(=O)CCl)c3)ncn2)cc1` [Compound 21, 2-chloro-N-(3-((6-((4-methoxyphenethyl)amino)pyrimidin-4-yl)oxy)phenyl)acetamide], the IC50 turned out to be 930 nM under setting [1], 1200 ± 330 nM under setting [2] and 660 ± 310 nM under setting [3].
`O=C(CCl)Nc1cccc(Oc2cc(NCCc3ccc(F)cc3)ncn2)c1` [Compound 20, 2-chloro-N-(3-((6-((4-fluorophenethyl)amino)pyrimidin-4-yl)oxy)phenyl)acetamide]: the 50% inhibitory concentration (IC50) under setting [1] amounted to 1200 nM, the concentration for half-maximal inhibition (IC50) under setting [2] is 710 ± 400 nM and the concentration for half-maximal inhibition (IC50) under setting [3] is 1600 ± 1800 nM.
As to `C=CC(=O)Nc1ccc(Oc2cc(NC)ncn2)cc1` [Compound 7, N-(4-((6-(methylamino)pyrimidin-4-yl)oxy)phenyl) acrylamide], the “in vitro activity” value is “less active than compound 8”. For the same compound, the IC50 under setting [1] amounted to 8800 nM. Further, the half-maximal inhibitory concentration (IC50) (read-out: MEK7 IC50) turned out to be 60 nM. For the same compound, the IC50 under setting [2] came out at 7700 ± 1300 nM. In addition, the IC50 under setting [3] was found to be 9900 ± 1200 nM.
On to `O=C(CCl)Nc1cccc(Oc2cc(NCc3ccc(F)c(F)c3)ncn2)c1` [Compound 29, 2-chloro-N-(3-((6-((3,4-difluorobenzyl)amino)pyrimidin-4-yl)oxy)phenyl)acetamide], for which the IC50 under setting [1] was determined as 42 nM; the concentration for half-maximal inhibition (IC50) (read-out: MEK7 IC50) was determined as 42 nM; the IC50 (read-out: MEK7 IC50, first experiment (IC50±SEM, n=3), first value in brackets) is 42 ± 36 nM; the half-maximal inhibitory concentration (IC50) (read-out: MEK7 IC50, second experiment (IC50±SEM, n=3), second value in brackets) came out at 42 ± 58 nM.
Turning to `O=C(CCl)Nc1cccc(Oc2cc(NCCc3ccccc3)ncn2)c1` [Compound 18], the IC50 was found to be 1200 nM under setting [1], 730 ± 220 nM under setting [2] and 1700 nM under setting [3].
The matching figures for `O=C(CCl)Nc1cccc(Oc2cc(NCc3ccc(C(F)(F)F)cc3)ncn2)c1` [Compound 37, 2-chloro-N-(3-((6-((4-(trifluoromethyl)benzyl)amino)pyrimidin-4-yl)oxy)phenyl)acetamide]: 410 nM, 200 ± 410 nM and 640 ± 270 nM.
Turning to `CNc1cc(Oc2cccc(NC(=O)C(C)(C)CCl)c2)ncn1` [Compound 11, 3-chloro-2,2-dimethyl-N-(3-((6-(methylamino)pyrimidin-4-yl)oxy)phenyl) propenamide], the “in vitro activity” value is “less potent”.
Regarding `O=C(CCl)Nc1cccc(Oc2cc(NCCc3c[nH]c4ccccc34)ncn2)c1` [Compound 15, N-(3-((6-((2-(1H-indol-3-yl)ethyl)amino)pyrimidin-4-yl)oxy)phenyl)-2-chloroacetamide], the “in vitro activity” value is “greatest potency”. The half-inhibitory concentration (IC50) under setting [1] was determined as 260 nM. In addition, the IC50 under setting [2] was 300 ± 92 nM. Also, the IC50 under setting [3] stood at 210 ± 180 nM.

For orientation: IC50 means the concentration needed to halve the response being measured.
